Experimental data: patent US9175077B2, “Nucleic acids encoding biologically active polypeptides derived from a novel early stage pregnancy factor designated maternin (MA)” (NOBEL BIOSCIENCES LLC, priority 1999, dated 2015)
Where “and” joins values, the source holds several entries; their conditions need not be identical. Equal values may be shown once.

How the values were obtained:
[1] = Lethal dose taxol in Sprague-Dawley rats; format: in vivo
Description: Sprague-Dawley rats were given taxol in large lethal doses, 4.5 mg in one I.P. inoculation. […] Bone marrow suppression can also be a side effect of the clinical use of taxol.^179 As in the radiation experiments, either MA, pMA, MAS1, or various polypeptide controls were given subcutaneously only in two doses 24 and 48 hrs before taxol treatment or were given 3×/week for 4 weeks. […]

[2] = system: human tumor cells; format: cell-based
Description: The anti-tumor activities of MA were assessed in several in vitro and in vivo systems using published methods.^166 In vitro studies were with a wide variety of human tumor cell lines as well as short-term cultures of cells from biopsy samples obtained from tumors. The assays included effects of MA on colony formation, cell number and viability (trypan blue), and apoptosis. Four measures of microscopy were used. In vivo studies included the effects of MA on tumors induced in immunodeficient mice by xenotransplanted various human neoplastic cells, spontaneous neoplasms of immuno-competent mice and rats, and a few standard tumors in immuno-competent mice. Representative examples are presented.
Cells (5×10^5/ml) were seeded in modified Eagle's medium supplemented with 10% FCS, 10% conditioned medium form PHA stimulated human lymphocytes, 2 mM glutamine in 0.8% V/V methylcellulose with or without various treatments in a final volume of 1.0 ml. Then 0.1 ml aliquots were seeded in 96 well flat bottom microtest plates and incubated at 37° C. in 5% CO2 in air for 7 days. Aggregates containing 50 cells or more were scored as colonies.
5×10^5 cells were seeded in triplicate on 24 gelatin coated wells in conditions as described for Panel A and treated with the indicated test materials. After 3 days the cells were dislodged from their monolayers by gentle pipetting with cell dissociation buffer (Life Technologies), counted after trypan blue staining and aliquots examined for Annexin V staining by indirect IFA […].
Studies of the anti-tumor cell effects of MA were extended to other carcinomas, melanoma, some hematopoietic tumors, and carcinomas of the colon, prostate, breast, lung, brain, pancreas, and kidney-using cell lines from these tumors. […] Many more types of tumor cells were studied utilizing other assays (see below).

[3] = system: SIVMAC 251; assay: SIV infection of rhesus macaque PBMCs (p27); format: cell-based
Description: One hour later the various polypeptides were added once.

[4] = Acutely bled rats; format: in vivo, Sprague-Dawley rats; conditions: i.p. 24 and 48 hrs after 35-40% blood loss
Source text: To delineate the effects of MA on hematopoiesis in the absence of any external bone marrow suppression, blood (35-40% of total blood volume) was removed from five Sprague-Dawley rats by intracardiac puncture. […] Each panel illustrates the mean values for the three animals treated with MAS1. Thus, MA and related derivatives have potent pro-hematopoietic effects.

[5] = system: human primitive hematopoietic stem cells; assay: Long term cultures (LTC-IC, stroma-free) of CD34+, CD38− cells from human BMMC; format: cell-based
Description: In the human system, a long-term culture-initiating assay (LTC-IC) can be used to detect cells that can generate myeloid clonogenic cells (CFC/colony forming cells) in long-term cultures for a minimum of 5 weeks. Bone marrow stromal was produced by culturing 107 fresh BM-MNC in a T25 flash for at least 2 weeks in 5 mL stromal medium; 12.5% horse [HS] and 12.5% fetal calf serum [FCS]; both from hyclone [Logan, Utah], Iscove's modified Dulbecco's medium [IMDM, GIBCO-BRL], 2-mercaptoethanol [Sigma, st. Louis, Mo.], 10^−6 mol/L hydrocortisone [Sigma] and penicillin/streptomycine.
One or 2 days before co-cultures, bone marrow stroma was irradiated with 15Gy and plated at 7×10^3/cm^2 in 24-well plates to form pre-established stromal layers for the long-term cultures. Limiting dilution was 1 to 1000 CD34+ bone marrow/cord blood cells and equivalent aliquots, i.e., limiting dilutions of the cells grown in long-term cultures stroma-free cultures after 2 to 20 weeks were seeded on top of the irradiated bone marrow stroma in culture medium containing IMDM, 12.5% HS, 12.5% FCS, 2-mercptoethanol, and 10^−6 mon-hydrocortisone for 5 weeks LTC-IC assay period. Non-adherent cells were removed from the cultures, combined with the corresponding trypsinized adherent cells, washed and assayed for colony forming units (CFU-Cs) in methylcellulose medium containing 1.3% methylcellulose (Fluka Chemilka Biochemika, buck\hs, Switzerland), 30% FCS, EPO (3 U/ml), IL-3 (20 ng/ml), G-CSF (20 ng/ml), GM-CSF (20 ng/ml) and KL (c-kit, 50 ng/ml). These cultures were incubated at 37° C. and colonies were scored 2 to 3 weeks later. LTC-IC enumeration was based on the number of CFU-C scored in the limiting assays [LDA] and another technique.
Stroma-free long-term cultures were performed as follows. 2 to 10×10^3 CD34+/CD34^−CD38^− from bone marrow/CB/PBMC cells were cultured in quadrutriplicate flat bottomed 24 well plates in 1 ml to of IMDM supplemented with 10% FCS and the following cytokines: IL-3 (10 ng/ml), IL-6 (10 ng/ml), KL [c-kit 50 ng/ml, FL (50 ng/ml) and TPO (10 U/ml), which added, alone or in combination of two or more factors, to each series of microwells twice a week. The wells were grown at 37° C. and share a number of features with in vivo murine long-term repopulating cells. These include assay for cobblestone areas colony forming cells (CAFC), high proliferative potentials colony-forming cells (HPP-CFC), CFU-GEMM, CFU-B1 (blast colony forming units).

[6] = LTC stroma free after 3 mos, n = 3

VVCNYRDVRFESIRLPGCPRGVNPVVSYAVALSCQ [MA]
survival of pretreated animals ([1]; low dose, two doses 24 and 48 hrs before taxol): Sixty-percent | survival maintained to day 80 ([1]; therapy maintained 28 days, high dose (1000 ng)): ~80% | survival maintained to day 80 ([1]; therapy maintained 28 days, low dose (100 ng)): about 60% | survival on day 5 ([1]; therapy maintained 28 days, low or high dose): 100% | effect on HTLV-I induced adult T-cell leukemia [2]: no effect | effect on some β-cell lymphomas [2]: no effect | inhibition of SIVMAC 251 infection (qualitative) [3]: inhibited | recovery of peripheral blood cells [4]: prompt recovery | BFU-e [5, 6]: 161 ± 8 | CFU-GM [5, 6]: 198 ± 11 | CFU-Mixed [5, 6]: 13 ± 3 | T-CFC [5, 6]: 199 ± 10 | CFU-GM: % of CD14 ([5]; culture 3): 27% | CFU-GM: % of CD68 ([5]; culture 3): 22% | CD34+ cells ([5]; culture 3 (LTC stroma free treated with MA)): 77.71% | T colonies Rx MA: CD3+/CD4+ ([5]; for 1, 2, and 3 (respectively)): 38% and 28% and 46% | T colonies Rx MA: CD3+/CD8+ ([5]; for 1, 2, and 3 (respectively)): 32% and 29% and 49%
